The values that follow come from US20250302909A1, “METHODS FOR THE TREATMENT OF AGE-RELATED MACULAR DEGENERATION” (Stealth BioTherapeutics Inc., priority 2024, published 2025).

The subject of data set [1] is patients with at least one eye with dry AMD and GA. The procedure: Study design. In this Phase 2, randomized, placebo-controlled, double-masked, multicenter, safety and efficacy trial (ClinicalTrials.gov identifier NCT03891875), patients with at least one eye with dry AMD and GA were included. Visit 1 (screening visit) was performed no more than 14 days before the baseline visit (visit 2, day 1) (FIG. 1). […] (Allingham 2022; Mettu 2022). Patients were treated for 48 weeks, with assessments at day 1 and weeks 4, 8, 12, 24, 36, and 48 (visits 2 to 8) plus a final safety follow-up visit 4 weeks after the last day of study treatment (week 52; visit 9). Patient diaries and vial counts were used and reviewed to verify compliance.
Safety/tolerability evaluations included assessment of the incidence and severity of adverse events/adverse device effects, incidence of conversion to MNV, changes from baseline in vital sign measurements, electrocardiograms, clinical evaluations, clinical laboratory evaluations, slit lamp examination, and dilated fundus examination.
Statistical analysis. Safety and efficacy variables were summarized descriptively. The safety population included all patients receiving ≥1 dose of investigational product. […] Patients were analyzed according to the actual treatment received. A sample size of 180 patients provides ≥80% power to detect a 5-letter (1-line) change from baseline mean difference in LL BCVA between drug and placebo, assuming a standard deviation of 11 letters, at a two-sided alpha-level of 0.10, and proves approximately 80% power to detect a 30% difference in the change from baseline in square root transformed total GA area by OCT between drug and placebo, assuming a standard deviation of 0.2 mm/year, and an average change of 0.33 mm/year, at a two-sided alpha-level of 0.1.

Data set [2] has the same test system. Nature of the data set: Phase 2 trial: ellipsoid zone integrity (tEZa, pEZa) and GA on OCT. Format: in vivo, human. An excerpt: (§1) Study design. […] (Allingham 2022; Mettu 2022).
(§2) Study objectives and endpoints. The primary efficacy endpoints were changes from baseline in LL BCVA and in square root converted GA area as measured by OCT. Secondary efficacy endpoints included changes in ellipsoid zone integrity, categorical changes from baseline in LL-BCVA, changes from baseline in LL reading acuity (LLRA), BCVA, and GA area as measured by FAF. Additional predefined endpoints included change in center 1-mm and 2-mm mean EZ-RPE thickness, National Eye Institute Visual Function Questionnaire (VFQ-39) score, RA at standard light, visual function by the Low-Luminance Questionnaire (LLQ). For efficacy endpoints, the unit of analysis was study eye; in cases where both eyes were eligible for analysis, the study eye was the eye with the worse LL BCVA as determined at baseline (right eye was the study eye for equal LL BCVA). Ellipsoid zone integrity was measured as previously described on OCT utilizing a machine learning enhanced multi-layer segmentation platform that provided panmacular assessment of the EZ and RPE location (Sirici, et al., Ophthamol Surg Lasers Imaging Retina, 2022; Itoh, et al, Br J Ophthamol, 2016).
Statistical analysis. Safety and efficacy variables were summarized descriptively. […] Patients were analyzed according to the actual treatment received.
For continuous data, a mixed model for repeated measures was used for each eye separately (study eye), with fixed effects for treatment arm, study visit, the treatment arm-by-visit interaction, baseline as a covariate, a baseline-by-visit interaction, a random effect for subject, using an unstructured covariance structure. The primary time point for analysis was week 48 (end of treatment visit) and the mITT population was the primary analysis population using observed data. A family-wise alpha level of 0.1 was maintained for the primary endpoint family, using Hochberg's procedure at the primary time point of 48 weeks. […] Otherwise, the endpoint with the smaller p-value of the two was considered statistically significant, if statistically significant at the 0.05 (two-sided) level of significance.

For data set [3] the test system is unchanged. Nature of the data set: Example 2: macular area of photoreceptor loss (tEZa) over time, linear mixed effects model. It is filed as in vivo, human. The method, then:
Data for this example was collected as part of the clinical study described above in Example 1. […] The primary analysis of rate of change in the macular area of photoreceptor loss over time was conducted using a linear mixed effects model assuming time as continuous and linear. […] Correlation between the repeated measurements of the same subject were accounted for by allowing an unstructured covariance matrix for the residuals. The outcome was the change in macular area of photoreceptor loss from baseline to each time point (time points being t=0, t=12 weeks, t=24 weeks, t=36 weeks and t=48 weeks) during the treatment period through week 48.

For data set [4] the test system is unchanged. The experiment in a line: Phase 2 trial (NCT03891875): low-luminance best-corrected visual acuity (LL BCVA). Format: in vivo, human. The conditions noted are these: week 48. The procedure:
as §1
Patients—Key inclusion criteria. The original protocol specified that adults ≥55 years of age with one eye with dry AMD and GA were eligible for study entry. However, a subsequent amendment to the protocol limited inclusion to patients with noncentral GA. Noncentral GA and area was determined primarily by fundus autofluorescence (FAF) and all noncentral GA lesions were required to be ≥150 μm from foveal center with preserved outer retinal structural details, as confirmed by the central reading center (BIRC, Boston MA). Noncentral GA was required to be ≥0.05 mm^2 and ≤10.16 mm^2 in size, and reside completely within the FAF 30- or 35-degree image. […] The fellow eye was allowed to have AMD with or without GA, MNV, central GA, or no pathology.
as §2
Statistical analysis. Safety and efficacy variables were summarized descriptively. […] Patients were analyzed according to the actual treatment received. […]

The conditions of data set [5]: general statement on formulation.
[6] abbreviates: Table 1, 117 randomized to elamipretide.
[7] abbreviates: clinical study, rate of growth of photoreceptor loss.

For `Cc1cc(O)cc(C)c1C[C@H](NC(=O)[C@H](N)CCCNC(=N)N)C(=O)N[C@@H](CCCCN)C(=O)N[C@@H](Cc1ccccc1)C(N)=O` (stereo in doubt) [elamipretide, H-D-Arg-2′,6′Dmt-Lys-Phe-NH2], in data set [1] (setting [6]), the “Early discontinuation: Adverse event” value was 10 (8.5) n (%), the “Early discontinuation: Withdrawal by subject” value is 20 (17.1) n (%) and the “Subjects leaving study early” value is recorded as 34 (29.1) n (%). In data set [1] (of n=117 randomized), the “patients who discontinued the study early (percent)” value is 29%. Also, the “reduction in progression of pEZa relative to placebo” value in data set [2] (LS mean change baseline to week 48) amounted to 47%. Also, the “reduction in progression of tEZa relative to placebo” value in data set [2] (LS mean change baseline to week 48, macular percentage of tEZa) came to 43%. The “progression of GA area relative to the baseline boundary of total EZ attenuation” value in data set [2] (during the trial, elamipretide treated arm) is reported as “GA area did not progress to the baseline boundary of total EZ attenuation”. In data set [2] (elamipretide arm, placebo arm 35%), the “growth of partial EZ attenuation area during the trial” value was determined as 14%. The “growth of total EZ attenuation area (mm^2) during the trial” value in data set [2] (elamipretide arm, placebo arm 52%) was 24%. In data set [2] (post-hoc analysis), the “rate of progression of the EZ-GA gap” value is “slower rate of progression”. In data set [2] (week 48, 40 mg subcutaneous once daily, P=0.0034 vs placebo), the “LS mean change from baseline to week 48 for macular percentage of tEZa (EZ-RPE thickness of 0 μm)” value is 3.69%. In addition, the “LS mean change from baseline to week 48 for pEZa (EZ-RPE thickness≤20 μm)” value in data set [2] (week 48, 40 mg subcutaneous once daily, P=0.0040 vs placebo) turned out to be 4.10%. In addition, the “mean rate of macular photoreceptor loss compared with the untreated group” value in data set [3] (FIG. 3, MMRM, weeks 12, 24, 36 and 48) is given as “reduced mean rate of macular photoreceptor loss”. Moreover, the “decrease of the growth of photoreceptor loss” value in data set [3] (FIG. 3, change in tEZa from baseline, weeks 12 to 48, 40 mg subcutaneous once daily vs untreated) was “about 50%”. Moreover, in data set [3] (setting [7]), the “clinical benefit in subjects who commenced therapy before developing measurable geographic atrophy (GA)” value is “experienced clinical benefit” and the “clinical benefit in subjects with non-central GA” value is given as “experienced clinical benefit”. Further, the “least-squares (LS) mean changes from baseline in LL BCVA” value in data set [4] (primary endpoint, 40 mg subcutaneous once daily, mITT, P=0.49 vs placebo) is given as −3.0 letters. Moreover, the “patients experiencing a ≥2-line gain (≥10 letter) in LL BCVA” value in data set [4] (40 mg subcutaneous once daily, P=0.0404 vs placebo) amounted to 14.6%. In addition, the “percentage of patients experiencing a >1-line gain” value in data set [4] (LL BCVA, vs placebo) is recorded as “higher compared to placebo”. The water solubility result in data set [5] was “highly water soluble”.
